Assay results from patent US10927106B2, “Benzothiazole derivatives as DYRK1 inhibitors” (PHARMASUM THERAPEUTICS AS, priority 2017, dated 2021).
Where two headings read alike, the source gives them in different places.

Experiments:
Assay in all cases: Kinase profiling, 33P ATP filter binding assay
Type in all cases: biochemical
SGK1 = SGK1 (Homo sapiens (Human), UniProt O00141); settings: 1 micromolar inhibitor concentration, read-out: percentage inhibition
PKCa = PKCa (Homo sapiens (Human), UniProt P17252); settings: 1 micromolar inhibitor concentration, read-out: percentage inhibition
Aurora A = Aurora A (Homo sapiens (Human), UniProt O14965); settings: 1 micromolar inhibitor concentration, read-out: percentage inhibition
MARK2 = MARK2 (Homo sapiens (Human), UniProt Q7KZI7); settings: 1 micromolar inhibitor concentration, read-out: percentage inhibition
PKCz = PKCz (Homo sapiens (Human), UniProt Q05513); settings: 1 micromolar inhibitor concentration, read-out: percentage inhibition
MNK1 = MNK1 (Homo sapiens (Human), UniProt Q9BUB5); settings: 1 micromolar inhibitor concentration, read-out: percentage inhibition
MST4 = MST4 (Homo sapiens (Human), UniProt Q9P289); settings: 1 micromolar inhibitor concentration, read-out: percentage inhibition
RSK1 = RSK1 (Homo sapiens (Human), UniProt Q15418); settings: 1 micromolar inhibitor concentration, read-out: percentage inhibition
PRK2 = PRK2 (Homo sapiens (Human), UniProt Q16513); settings: 1 micromolar inhibitor concentration, read-out: percentage inhibition
HIPK3 = HIPK3 (Homo sapiens (Human), UniProt Q9H422); settings: 1 micromolar inhibitor concentration, read-out: percentage inhibition
TAK1 = TAK1 (Homo sapiens (Human), UniProt O43318); settings: 1 micromolar inhibitor concentration, read-out: percentage inhibition
Src = Src (Homo sapiens (Human), UniProt P12931); settings: 1 micromolar inhibitor concentration, read-out: percentage inhibition
ULK1 = ULK1 (Homo sapiens (Human), UniProt O75385); settings: 1 micromolar inhibitor concentration, read-out: percentage inhibition
BRSK2 = BRSK2 (Homo sapiens (Human), UniProt Q8IWQ3); settings: 1 micromolar inhibitor concentration, read-out: percentage inhibition
SIK2 = SIK2 (Homo sapiens (Human), UniProt Q9H0K1); settings: 1 micromolar inhibitor concentration, read-out: percentage inhibition
PAK6 = PAK6 (Homo sapiens (Human), UniProt Q9NQU5); settings: 1 micromolar inhibitor concentration, read-out: percentage inhibition
ERK5 = ERK5 (Homo sapiens (Human), UniProt Q13164); settings: 1 micromolar inhibitor concentration, read-out: percentage inhibition
SmMLCK = SmMLCK (Homo sapiens (Human), UniProt Q15746); settings: 1 micromolar inhibitor concentration, read-out: percentage inhibition
Protocol: (§1) The determination of protein kinase inhibition was performed at the International Centre for Kinase Profiling at the University of Dundee, UK. […] The ATP concentrations were at or below the calculated Km for ATP for each particular kinase.

PKD1 = PKD1 (Homo sapiens (Human), UniProt Q15139); settings: 1 micromolar inhibitor concentration, read-out: percentage inhibition
CHK2 = CHK2 (Homo sapiens (Human), UniProt O96017); settings: 1 micromolar inhibitor concentration, read-out: percentage inhibition
IRR = IRR (Homo sapiens (Human), UniProt P14616); settings: 1 micromolar inhibitor concentration, read-out: percentage inhibition
MAP4K3 = MAP4K3 (Homo sapiens (Human), UniProt Q8IVH8); settings: 1 micromolar inhibitor concentration, read-out: percentage inhibition
NUAK1 = NUAK1 (Homo sapiens (Human), UniProt O60285); settings: 1 micromolar inhibitor concentration, read-out: percentage inhibition
EPH-B4 = EPH-B4 (Homo sapiens (Human), UniProt P54760); settings: 1 micromolar inhibitor concentration, read-out: percentage inhibition
MNK2 = MNK2 (Homo sapiens (Human), UniProt Q9HBH9); settings: 1 micromolar inhibitor concentration, read-out: percentage inhibition
TIE2 = TIE2 (Homo sapiens (Human), UniProt Q02763); settings: 1 micromolar inhibitor concentration, read-out: percentage inhibition
TESK1 = TESK1 (Homo sapiens (Human), UniProt Q15569); settings: 1 micromolar inhibitor concentration, read-out: percentage inhibition
NEK2a = NEK2a (Homo sapiens (Human), UniProt P51955); settings: 1 micromolar inhibitor concentration, read-out: percentage inhibition
MAPKAP-K3 = MAPKAP-K3 (Homo sapiens (Human), UniProt Q16644); settings: 1 micromolar inhibitor concentration, read-out: percentage inhibition
CK1δ = CK1δ (Homo sapiens (Human), UniProt P48730); settings: read-out: percentage inhibition
Protocol: as §1

p38a MAPK = p38a MAPK (Homo sapiens (Human), UniProt Q16539); settings: 1 micromolar inhibitor concentration, read-out: percentage inhibition
MARK4 = MARK4 (Homo sapiens (Human), UniProt Q96L34); settings: 1 micromolar inhibitor concentration, read-out: percentage inhibition
LKB1 = LKB1 (Homo sapiens (Human), UniProt Q15831); settings: 1 micromolar inhibitor concentration, read-out: percentage inhibition
CHK1 = CHK1 (Homo sapiens (Human), UniProt O14757); settings: 1 micromolar inhibitor concentration, read-out: percentage inhibition
SIK3 = SIK3 (Homo sapiens (Human), UniProt Q9Y2K2); settings: 1 micromolar inhibitor concentration, read-out: percentage inhibition
MARK3 = MARK3 (Homo sapiens (Human), UniProt P27448); settings: 1 micromolar inhibitor concentration, read-out: percentage inhibition
p38d MAPK = p38d MAPK (Homo sapiens (Human), UniProt O15264); settings: 1 micromolar inhibitor concentration, read-out: percentage inhibition
MINK1 = MINK1 (Homo sapiens (Human), UniProt Q8N4C8); settings: 1 micromolar inhibitor concentration, read-out: percentage inhibition
PIM3 = PIM3 (Homo sapiens (Human), UniProt Q86V86); settings: 1 micromolar inhibitor concentration, read-out: percentage inhibition
PIM1 = PIM1 (Homo sapiens (Human), UniProt P11309); settings: 1 micromolar inhibitor concentration, read-out: percentage inhibition
p38g MAPK = p38g MAPK (Homo sapiens (Human), UniProt P53778); settings: 1 micromolar inhibitor concentration, read-out: percentage inhibition

Chain of PRK2 (Q16513 whole entry, species assumed): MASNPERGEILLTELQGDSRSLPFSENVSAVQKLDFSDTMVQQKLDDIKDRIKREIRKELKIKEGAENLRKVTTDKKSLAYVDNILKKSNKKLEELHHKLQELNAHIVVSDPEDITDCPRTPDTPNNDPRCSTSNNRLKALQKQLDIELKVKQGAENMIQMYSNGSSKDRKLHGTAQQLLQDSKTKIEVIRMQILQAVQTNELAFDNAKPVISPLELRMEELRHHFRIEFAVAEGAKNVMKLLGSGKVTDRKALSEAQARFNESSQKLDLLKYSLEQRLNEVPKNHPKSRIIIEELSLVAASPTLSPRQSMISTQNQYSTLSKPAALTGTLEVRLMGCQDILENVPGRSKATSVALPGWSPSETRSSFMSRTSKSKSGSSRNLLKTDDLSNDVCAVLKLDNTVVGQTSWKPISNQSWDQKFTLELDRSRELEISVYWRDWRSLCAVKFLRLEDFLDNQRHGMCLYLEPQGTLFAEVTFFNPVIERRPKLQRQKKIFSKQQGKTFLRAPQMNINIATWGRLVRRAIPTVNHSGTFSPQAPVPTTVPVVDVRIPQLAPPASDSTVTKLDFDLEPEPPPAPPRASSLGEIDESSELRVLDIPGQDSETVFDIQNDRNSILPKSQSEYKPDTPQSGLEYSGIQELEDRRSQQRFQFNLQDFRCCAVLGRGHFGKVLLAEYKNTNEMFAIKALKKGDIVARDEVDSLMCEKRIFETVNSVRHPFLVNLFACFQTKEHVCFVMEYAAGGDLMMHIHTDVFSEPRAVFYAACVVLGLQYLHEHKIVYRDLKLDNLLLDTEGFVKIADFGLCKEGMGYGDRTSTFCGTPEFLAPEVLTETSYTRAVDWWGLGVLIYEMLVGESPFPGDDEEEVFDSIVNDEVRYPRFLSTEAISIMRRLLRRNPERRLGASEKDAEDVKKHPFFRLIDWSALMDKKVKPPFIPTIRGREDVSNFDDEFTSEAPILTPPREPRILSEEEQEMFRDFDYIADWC
Chain of ERK5 (Q13164 whole entry, species assumed): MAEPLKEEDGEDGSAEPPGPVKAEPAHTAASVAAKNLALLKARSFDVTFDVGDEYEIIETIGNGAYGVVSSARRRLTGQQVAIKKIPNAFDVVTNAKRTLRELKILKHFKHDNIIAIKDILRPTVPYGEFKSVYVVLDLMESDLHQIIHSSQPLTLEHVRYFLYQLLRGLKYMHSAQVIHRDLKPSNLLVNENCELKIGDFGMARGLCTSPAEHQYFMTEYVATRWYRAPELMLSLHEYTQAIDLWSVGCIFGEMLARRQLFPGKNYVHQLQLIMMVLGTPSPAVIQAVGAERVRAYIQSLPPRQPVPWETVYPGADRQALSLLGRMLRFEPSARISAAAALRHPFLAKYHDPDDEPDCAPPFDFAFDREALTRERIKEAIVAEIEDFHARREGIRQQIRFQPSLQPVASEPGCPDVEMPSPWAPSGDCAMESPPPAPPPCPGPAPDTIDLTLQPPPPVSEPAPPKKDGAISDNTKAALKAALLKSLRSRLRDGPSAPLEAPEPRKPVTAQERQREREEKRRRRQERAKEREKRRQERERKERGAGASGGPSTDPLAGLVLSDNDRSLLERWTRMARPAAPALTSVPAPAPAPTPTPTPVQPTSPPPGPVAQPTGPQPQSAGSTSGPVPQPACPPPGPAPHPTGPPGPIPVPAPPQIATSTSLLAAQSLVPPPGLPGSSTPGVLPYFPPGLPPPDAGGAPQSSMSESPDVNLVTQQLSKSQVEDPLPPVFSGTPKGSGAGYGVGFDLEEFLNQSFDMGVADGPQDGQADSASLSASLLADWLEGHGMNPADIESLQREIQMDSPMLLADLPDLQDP
Chain of MARK3 (P27448 whole entry, species assumed): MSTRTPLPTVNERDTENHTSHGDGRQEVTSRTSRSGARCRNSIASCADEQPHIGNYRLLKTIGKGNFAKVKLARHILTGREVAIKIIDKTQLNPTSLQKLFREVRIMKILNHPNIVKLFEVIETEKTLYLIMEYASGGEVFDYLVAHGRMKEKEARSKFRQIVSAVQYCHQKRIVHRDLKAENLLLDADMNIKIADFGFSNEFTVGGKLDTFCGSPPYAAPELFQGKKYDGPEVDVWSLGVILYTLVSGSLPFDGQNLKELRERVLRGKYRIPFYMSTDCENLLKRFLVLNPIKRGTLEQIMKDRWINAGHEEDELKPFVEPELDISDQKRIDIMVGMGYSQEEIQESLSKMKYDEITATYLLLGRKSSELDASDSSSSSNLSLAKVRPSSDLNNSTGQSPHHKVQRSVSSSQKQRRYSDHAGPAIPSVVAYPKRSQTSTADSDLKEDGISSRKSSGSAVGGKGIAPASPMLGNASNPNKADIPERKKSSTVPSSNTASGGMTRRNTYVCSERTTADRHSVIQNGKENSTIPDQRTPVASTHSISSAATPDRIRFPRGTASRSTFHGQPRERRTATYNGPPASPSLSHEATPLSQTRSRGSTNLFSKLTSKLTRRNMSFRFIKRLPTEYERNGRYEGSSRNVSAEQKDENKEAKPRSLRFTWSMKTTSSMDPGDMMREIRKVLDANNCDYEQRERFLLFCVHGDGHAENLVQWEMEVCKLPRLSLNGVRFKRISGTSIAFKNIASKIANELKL
Chain of Src (P12931 whole entry, looked up, species assumed): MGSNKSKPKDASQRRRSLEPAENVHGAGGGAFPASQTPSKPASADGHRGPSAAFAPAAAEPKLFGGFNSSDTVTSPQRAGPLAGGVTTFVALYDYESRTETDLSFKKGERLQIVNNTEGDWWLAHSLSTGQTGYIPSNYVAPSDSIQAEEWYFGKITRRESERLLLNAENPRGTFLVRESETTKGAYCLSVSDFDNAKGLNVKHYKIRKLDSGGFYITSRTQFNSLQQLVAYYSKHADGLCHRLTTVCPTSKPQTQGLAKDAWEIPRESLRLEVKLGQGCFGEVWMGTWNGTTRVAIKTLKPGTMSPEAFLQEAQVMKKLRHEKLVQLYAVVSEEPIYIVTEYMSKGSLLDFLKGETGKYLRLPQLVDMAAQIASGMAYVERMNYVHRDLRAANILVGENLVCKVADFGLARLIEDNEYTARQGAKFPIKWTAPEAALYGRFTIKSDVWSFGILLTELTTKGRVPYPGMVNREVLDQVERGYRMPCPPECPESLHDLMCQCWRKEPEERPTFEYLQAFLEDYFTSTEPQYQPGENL
Chain of SIK2 (Q9H0K1 whole entry, species assumed): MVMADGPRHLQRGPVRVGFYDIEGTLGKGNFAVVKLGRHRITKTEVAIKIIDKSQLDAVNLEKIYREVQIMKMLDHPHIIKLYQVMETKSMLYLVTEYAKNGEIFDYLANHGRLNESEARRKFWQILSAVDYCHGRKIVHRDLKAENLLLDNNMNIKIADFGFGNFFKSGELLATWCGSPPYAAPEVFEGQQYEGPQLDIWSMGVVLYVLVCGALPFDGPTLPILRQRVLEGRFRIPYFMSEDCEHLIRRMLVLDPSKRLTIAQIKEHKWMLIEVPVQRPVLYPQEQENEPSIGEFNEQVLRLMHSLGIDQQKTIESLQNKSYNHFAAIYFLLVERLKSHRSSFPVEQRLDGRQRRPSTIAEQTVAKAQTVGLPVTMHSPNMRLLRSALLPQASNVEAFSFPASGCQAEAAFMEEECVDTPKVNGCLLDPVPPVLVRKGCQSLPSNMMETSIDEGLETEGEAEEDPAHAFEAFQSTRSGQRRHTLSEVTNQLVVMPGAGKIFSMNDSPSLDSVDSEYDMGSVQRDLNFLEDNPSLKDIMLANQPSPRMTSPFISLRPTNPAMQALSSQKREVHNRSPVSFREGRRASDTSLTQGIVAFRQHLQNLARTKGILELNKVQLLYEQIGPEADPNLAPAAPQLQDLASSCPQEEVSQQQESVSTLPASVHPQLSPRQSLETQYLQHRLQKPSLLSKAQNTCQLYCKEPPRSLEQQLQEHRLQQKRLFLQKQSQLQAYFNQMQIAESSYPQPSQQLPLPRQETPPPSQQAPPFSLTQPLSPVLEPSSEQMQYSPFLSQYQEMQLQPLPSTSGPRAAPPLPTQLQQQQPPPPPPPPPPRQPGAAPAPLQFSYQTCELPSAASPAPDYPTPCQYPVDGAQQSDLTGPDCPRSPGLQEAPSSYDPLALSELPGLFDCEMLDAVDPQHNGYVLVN
Chain of PIM1 (P11309 whole entry, species assumed): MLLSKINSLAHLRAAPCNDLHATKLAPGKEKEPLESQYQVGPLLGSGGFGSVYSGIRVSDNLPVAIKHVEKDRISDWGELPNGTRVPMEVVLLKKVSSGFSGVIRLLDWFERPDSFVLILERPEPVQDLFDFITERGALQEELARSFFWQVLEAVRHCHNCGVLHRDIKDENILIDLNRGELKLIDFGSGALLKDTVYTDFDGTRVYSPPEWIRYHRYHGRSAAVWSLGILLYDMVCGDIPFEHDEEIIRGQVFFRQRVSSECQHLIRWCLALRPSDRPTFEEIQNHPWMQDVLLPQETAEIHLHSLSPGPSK

`COc1ccc2sc(-c3cncc(NC(C)=O)c3)nc2c1` [4-93, N-(5-(5-Methoxybenzo[d]thiazol-2-yl)pyridin-3-yl)acetamide] showed an inhibition at 1 µM (SGK1) of 0%, an inhibition at 1 µM (PKCa) of 0% and an inhibition at 1 µM (Aurora A) of 0%. For the same compound, the inhibition at 1 µM (MARK2) was 0%, the inhibition at 1 µM (PKCz) was 0% and the inhibition at 1 µM (MNK1) was 0%. It also gave an inhibition at 1 µM (MST4) of 0%, an inhibition at 1 µM (RSK1) of 1% and an inhibition at 1 µM (PRK2) of 0%. The inhibition at 1 µM (HIPK3) was 0%, the inhibition at 1 µM (TAK1) was 52% and the inhibition at 1 µM (Src) was 0%. The inhibition at 1 µM (ULK1) was 0%, the inhibition at 1 µM (BRSK2) was 0% and the inhibition at 1 µM (SIK2) was 0%. It also gave an inhibition at 1 µM (PAK6) of 0%, an inhibition at 1 µM (ERK5) of 28% and an inhibition at 1 µM (SmMLCK) of 0%. It also gave an inhibition at 1 µM (PKD1) of 0%, an inhibition at 1 µM (CHK2) of 0% and an inhibition at 1 µM (IRR) of 0%. It also gave an inhibition at 1 µM (MAP4K3) of 0%, an inhibition at 1 µM (NUAK1) of 0% and an inhibition at 1 µM (EPH-B4) of 0%. The inhibition at 1 µM (MNK2) was 0%, the inhibition at 1 µM (TIE2) was 0% and the inhibition at 1 µM (TESK1) was 0%. The inhibition at 1 µM (NEK2a) was 0%, the inhibition at 1 µM (MAPKAP-K3) was 0% and the inhibition at 1 µM (CK1δ) was 1%. It also gave an inhibition at 1 µM (p38a MAPK) of 0%, an inhibition at 1 µM (MARK4) of 0% and an inhibition at 1 µM (LKB1) of 0%. The inhibition at 1 µM (CHK1) was 0%, the inhibition at 1 µM (SIK3) was 0% and the inhibition at 1 µM (MARK3) was 1%. For the same compound, the inhibition at 1 µM (p38d MAPK) was 0%, the inhibition at 1 µM (MINK1) was 0% and the inhibition at 1 µM (PIM3) was 7%. For the same compound, the inhibition at 1 µM (PIM1) was 2% and the inhibition at 1 µM (p38g MAPK) was 0%.

`CS(=O)(=O)Nc1cncc(-c2nc3cc(O)ccc3s2)c1` [4-99, N-(5-(5-Hydroxybenzo[d]thiazol-2-yl)pyridin-3-yl)methanesulfonamide] gave an inhibition at 1 µM (SGK1) of 7%, an inhibition at 1 µM (PKCa) of 0% and an inhibition at 1 µM (Aurora A) of 0%. The inhibition at 1 µM (MARK2) was 0%, the inhibition at 1 µM (PKCz) was 0% and the inhibition at 1 µM (MNK1) was 0%. For the same compound, the inhibition at 1 µM (MST4) was 0%, the inhibition at 1 µM (RSK1) was 0% and the inhibition at 1 µM (PRK2) was 0%. For the same compound, the inhibition at 1 µM (HIPK3) was 0%, the inhibition at 1 µM (TAK1) was 8% and the inhibition at 1 µM (Src) was 0%. The inhibition at 1 µM (ULK1) was 0%, the inhibition at 1 µM (BRSK2) was 0% and the inhibition at 1 µM (SIK2) was 0%. For the same compound, the inhibition at 1 µM (PAK6) was 0%, the inhibition at 1 µM (ERK5) was 7% and the inhibition at 1 µM (SmMLCK) was 0%. The inhibition at 1 µM (PKD1) was 0%, the inhibition at 1 µM (CHK2) was 0% and the inhibition at 1 µM (IRR) was 0%. It also gave an inhibition at 1 µM (MAP4K3) of 0%, an inhibition at 1 µM (NUAK1) of 0% and an inhibition at 1 µM (EPH-B4) of 0%. For the same compound, the inhibition at 1 µM (MNK2) was 0%, the inhibition at 1 µM (TIE2) was 3% and the inhibition at 1 µM (TESK1) was 0%. The inhibition at 1 µM (NEK2a) was 0%, the inhibition at 1 µM (MAPKAP-K3) was 0% and the inhibition at 1 µM (CK1δ; CK1δ, 1 micromolar inhibitor concentration) was 8%. It also gave an inhibition at 1 µM (p38a MAPK) of 0%, an inhibition at 1 µM (MARK4) of 0% and an inhibition at 1 µM (LKB1) of 0%. The inhibition at 1 µM (CHK1) was 0%, the inhibition at 1 µM (SIK3) was 0% and the inhibition at 1 µM (MARK3) was 0%. It also gave an inhibition at 1 µM (p38d MAPK) of 0%, an inhibition at 1 µM (MINK1) of 0% and an inhibition at 1 µM (PIM3) of 0%. For the same compound, the inhibition at 1 µM (PIM1) was 0% and the inhibition at 1 µM (p38g MAPK) was 0%.
